Consider four compounds from ChEMBL document CHEMBL1201862, “PubChem BioAssay data set” (2004).

Some test systems named below: NCI-H226; K562; SK-MEL-2; COLO 205; U-251; DMS-273; HCC 2998; OVCAR-5; RPMI-8226; CCRF-CEM; MDA-N; UACC-62; BT-549; LOX IMVI; MOLT-4; NCI-H23; SR; EKVX; HOP-62; T47D.
Holding throughout (assay): DTP human tumour cell line panel, 48 h

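These data come from cells grown in 96-well plates and exposed to compound for 48 hours at five concentrations. Here, GI50 denotes the concentration required for 50% inhibition of growth.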 Active and inactive are the calls of the source. No stated cut-off is given here; in the data, active = GI50 up to about 1.1 µM and inactive = higher.

The term GI50 denotes the concentration that inhibits growth by half. As to `CCCCCCCCC/C=C1\CCC(CN2CCOCC2)C1=O` (centres undefined), the GI50 was 5.61 µM (inactive) in the test on NCI-H226; 2.45 µM (inactive) in the test with K562; 5.51 µM (inactive) in the test on SK-MEL-2; 3.73 µM (inactive) with COLO 205; 2.02 µM (inactive) in the test with U-251; 2.32 µM (inactive) in the test on DMS-273. The GI50 is 6.9 µM (inactive) in the test with HCC 2998; 16.9 µM (inactive) in the test with OVCAR-5; 0.303 µM (active) in the test on RPMI-8226; 1.8 µM (inactive) with CCRF-CEM; 2.64 µM (inactive) with MDA-N; 3.45 µM (inactive) with UACC-62. In addition, the GI50 in the test on BT-549 was 2.08 µM (inactive); in the test on LOX IMVI, 0.855 µM (active); in the test on MOLT-4, 1.57 µM (inactive); in the test on NCI-H23, 3.9 µM (inactive); in the test on SR, 2.38 µM (inactive); in the test with EKVX, 14.8 µM (inactive). For the same compound, in the test on HOP-62, the GI50 was 13.6 µM (inactive).
As to `CC1(C(=O)Nc2ccc3cc4ccccc4cc3c2)CC2(C)CC(C)(C1)C(O)NC2=O` (centres undefined), the GI50 in the test with NCI-H226 is 53.1 µM (inactive); with K562, 73.1 µM (inactive); in the test on SK-MEL-2, > 100 µM (inactive); with COLO 205, 41.6 µM (inactive); in the test with U-251 it was > 100 µM (inactive); in the test on DMS-273, > 100 µM (inactive). Further, the GI50 is > 100 µM (inactive) in the test on HCC 2998; > 100 µM (inactive) in the test with OVCAR-5; 61.1 µM (inactive) in the test with RPMI-8226; 34.4 µM (inactive) in the test on CCRF-CEM; > 100 µM (inactive) in the test on UACC-62; 62.4 µM (inactive) with LOX IMVI. Further, the GI50 with MOLT-4 was 20.6 µM (inactive); with NCI-H23, > 100 µM (inactive); in the test on SR it was 23.6 µM (inactive); in the test on EKVX, > 100 µM (inactive); in the test with HOP-62, > 100 µM (inactive).
Take `OC(C1CO1)C(O)C1CO1` (centres undefined): the GI50 is 81.3 µM (inactive) in the test with K562; 61.1 µM (inactive) in the test on SK-MEL-2; 87.7 µM (inactive) with COLO 205; 27 µM (inactive) with U-251; 8.81 µM (inactive) with DMS-273; 44.6 µM (inactive) in the test on HCC 2998. Also, the GI50 with T47D is 17 µM (inactive); in the test with OVCAR-5, 77.1 µM (inactive); in the test on RPMI-8226, 69 µM (inactive); in the test with CCRF-CEM it was 3.71 µM (inactive); with MDA-N it was 29.9 µM (inactive); with UACC-62, 9.27 µM (inactive). The GI50 with BT-549 was 120 µM (inactive); in the test on LOX IMVI it was 15.7 µM (inactive); with MOLT-4, 3.68 µM (inactive); in the test with NCI-H23 it was 20.1 µM (inactive); with SR, 1.75 µM (inactive); in the test on EKVX, 90.4 µM (inactive). For the same compound, the GI50 in the test on HOP-62 is 7.26 µM (inactive).
On to `O=C1N[C@H]2[C@H](O)[C@H](O)[C@@H](O)[C@H](O)[C@@H]2c2cc3c(c(O)c21)OCO3` [PANCRATISTATIN], for which the GI50 with NCI-H226 is 0.0375 µM (active); in the test with K562, 0.0373 µM (active); in the test with SK-MEL-2, 0.0336 µM (active); in the test with COLO 205, 0.0288 µM (active); in the test with U-251 it was 0.0339 µM (active); with DMS-273, 0.0826 µM (active). Besides, the GI50 in the test with HCC 2998 is 0.0403 µM (active); in the test with T47D it was 0.0288 µM (active); in the test on OVCAR-5, 0.144 µM (active); in the test on RPMI-8226, 0.0778 µM (active); in the test on CCRF-CEM, 0.0324 µM (active); in the test with MDA-N, 0.0372 µM (active). In addition, the 50% growth inhibitory concentration (GI50) in the test on UACC-62 is 0.0436 µM (active); in the test on BT-549, 0.0493 µM (active); with LOX IMVI it was 0.0307 µM (active); with MOLT-4, 0.0309 µM (active); in the test with NCI-H23, 0.0445 µM (active); in the test with SR it was 0.106 µM (active). The GI50 in the test with HOP-62 is 0.0449 µM (active).
